Tests used:
[1] = target: T1, EI^Ntr (Enzyme I^Ntr) (Escherichia coli, UniProt P37177, H356A); assay: thermal unfolding followed by Trp fluorescence; type: binding; settings: hydrogenated protein, 150 μM PEP, 20 mM Tris-Cl pH 8, 2 mM MgCl2, scan 30 °C/h
[2] = target: T1, EI^Ntr (Enzyme I^Ntr); assay: intrinsic Trp fluorescence titration; type: binding

T1 sequence (P37177 170-748 H356A limits assumed): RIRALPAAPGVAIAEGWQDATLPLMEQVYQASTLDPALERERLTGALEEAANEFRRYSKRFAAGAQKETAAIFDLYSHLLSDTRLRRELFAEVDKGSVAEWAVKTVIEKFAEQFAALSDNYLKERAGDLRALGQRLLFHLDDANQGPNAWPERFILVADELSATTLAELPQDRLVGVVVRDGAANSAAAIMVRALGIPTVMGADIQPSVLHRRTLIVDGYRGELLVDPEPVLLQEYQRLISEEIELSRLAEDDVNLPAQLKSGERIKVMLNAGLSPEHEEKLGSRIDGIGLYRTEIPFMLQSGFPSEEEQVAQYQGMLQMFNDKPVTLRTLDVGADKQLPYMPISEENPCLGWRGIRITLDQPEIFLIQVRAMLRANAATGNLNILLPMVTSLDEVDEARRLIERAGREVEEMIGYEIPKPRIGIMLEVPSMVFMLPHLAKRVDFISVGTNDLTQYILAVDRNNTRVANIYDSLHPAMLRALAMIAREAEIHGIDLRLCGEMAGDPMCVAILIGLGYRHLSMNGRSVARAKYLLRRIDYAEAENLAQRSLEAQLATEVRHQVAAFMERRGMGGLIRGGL

SMILES: C=C(OP(=O)(O)O)C(=O)O [PEP]
- stabilization due to PEP binding (dTm) [1]: 4.04 °C
- Kd [2]: 21 µM
